Results from patent publication US20240182445A1 (ONO PHARMACEUTICAL CO., LTD., priority 2019, published 2024).

These molecules were tested against T1, human TREK-1 (Homo sapiens, UniProt O95069) (assay: TREK-1 Thallium (Tl+) flux assay, Method 1). Settings: TREK-1 Thallium (Tl+) flux assay, Method 1.
T1 construct: expressed in transfected cells
T1 sequence (O95069 1-426): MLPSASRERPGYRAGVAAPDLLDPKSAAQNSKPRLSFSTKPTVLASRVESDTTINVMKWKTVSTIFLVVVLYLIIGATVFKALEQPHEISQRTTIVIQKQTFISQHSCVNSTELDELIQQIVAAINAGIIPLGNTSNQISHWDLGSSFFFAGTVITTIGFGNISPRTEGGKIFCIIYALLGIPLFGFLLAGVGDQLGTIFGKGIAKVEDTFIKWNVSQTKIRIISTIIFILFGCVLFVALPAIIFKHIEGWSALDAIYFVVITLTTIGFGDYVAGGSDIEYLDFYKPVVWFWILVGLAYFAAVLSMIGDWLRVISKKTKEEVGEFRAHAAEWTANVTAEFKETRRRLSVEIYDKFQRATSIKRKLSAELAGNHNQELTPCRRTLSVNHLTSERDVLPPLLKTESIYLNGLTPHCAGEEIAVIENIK
Format: cell-based
Procedure, shortened: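 Readout: Thallos fluorescence ratio, taken 25 s post-thallium relative to the pre-thallium baseline average, then converted to % inhibition. Cells were CHO-K1 stably expressing human TREK-1, dye-loaded and exposed to test compound (vehicle 0.3% DMSO) for 10 min prior to thallium stimulation.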

IC50 [µM]	SMILES
2.77	Cc1ccc(-n2cc(-c3cnc(NC(=O)c4c(Cl)cnn4C4CCN(C(=O)OC(C)(C)C)CC4)c(C)c3)cn2)cc1 [Compound 409, tert-butyl 4-(4-chloro-5-((3-methyl-5-(1-(p-tolyl)-1H-pyrazol-4-yl)pyridin-2-yl)carbamoyl)-1H-pyrazol-1-yl)piperidine-1-carboxylate]
9.3	Cc1cc(-c2cnn(-c3ccccc3F)c2)cnc1NC(=O)c1c(Cl)cnn1C1CCN(C(=O)OC(C)(C)C)CC1 [Compound 436, tert-butyl 4-(4-chloro-5-((5-(1-(2-fluorophenyl)-1H-pyrazol-4-yl)-3-methylpyridin-2-yl)carbamoyl)-1H-pyrazol-1-yl)piperidine-1-carboxylate]
2.29	COc1ccc(-c2cnc(NC(=O)c3c(Cl)cnn3C3CCN(C(=O)OC(C)(C)C)CC3)c(C)c2)c(C)c1 [Compound 403, tert-butyl 4-(4-chloro-5-((5-(4-methoxy-2-methylphenyl)-3-methylpyridin-2-yl)carbamoyl)-1H-pyrazol-1-yl)piperidine-1-carboxylate]

Same assay, conditions: TREK-1 Thallium (Tl+) flux assay; no *^12 (Method 2) mark on these rows

IC50 [µM]	SMILES
0.36	Cc1cc(C#Cc2ccccc2)cnc1NC(=O)c1c(Cl)cnn1CC1(F)CCN(C(=O)C(C)C)CC1 [Compound 236, 4-chloro-1-((4-fluoro-1-isobutyrylpiperidin-4-yl)methyl)-N-(3-methyl-5-(phenylethynyl)pyridin-2-yl)-1H-pyrazole-5-carboxamide]
0.43	Cc1cc(C#Cc2ccc(F)cc2)cnc1NC(=O)c1c(Cl)cnn1CC1CCCN(C(=O)C2CC2C)C1 (centres unmarked) [Compound 264, 4-chloro-N-(5-((4-fluorophenyl)ethynyl)-3-methylpyridin-2-yl)-1-((1-(2-methylcyclopropane-1-carbonyl)piperidin-3-yl)methyl)-1H-pyrazole-5-carboxamide]
0.3	CC(=O)N1C[C@H]2C[C@H](n3ncc(Cl)c3C(=O)Nc3ncc(C#Cc4cccc(F)c4)cc3C)C[C@H]2C1 [Compound 195, 1-[(3aR,5s,6aS)-2-acetyloctahydrocyclopenta[c]pyrrol-5-yl]-4-chloro-N-{5-[(3-fluorophenyl)ethynyl]-3-methylpyridin-2-yl}-1H-pyrazole-5-carboxamide]
0.34	Cc1cc(C#Cc2ccccc2)cnc1NC(=O)c1c(Cl)cnn1C1CCN(C(=O)C(C)(C)C)CC1 [Compound 220, 4-chloro-N-(3-methyl-5-(phenylethynyl)pyridin-2-yl)-1-(1-pivaloylpiperidin-4-yl)-1H-pyrazole-5-carboxamide]
1.15	Cc1cc(C#Cc2ccccc2)cnc1NC(=O)c1c(Cl)ccn1CC1CCOCC1 [Compound 375, 3-chloro-N-(3-methyl-5-(phenylethynyl)pyridin-2-yl)-1-((tetrahydro-2H-pyran-4-yl)methyl)-1H-pyrrole-2-carboxamide]
0.42	Cc1cc(C#Cc2ccccc2)cnc1NC(=O)c1c(Cl)cnn1C1CC(C#N)C1 (centres unmarked) [Compound 254, 4-chloro-1-(3-cyanocyclobutyl)-N-(3-methyl-5-(phenylethynyl)pyridin-2-yl)-1H-pyrazole-5-carboxamide]
0.42	CC(=O)N1CCC(Cn2ncc(Cl)c2C(=O)Nc2ncc(C#Cc3ccc(F)cc3)cc2C)CC1 [Compound 256, 1-((1-acetylpiperidin-4-yl)methyl)-4-chloro-N-(5-((4-fluorophenyl)ethynyl)-3-methylpyridin-2-yl)-1H-pyrazole-5-carboxamide]
0.35	CC(C)(C)OC(=O)N1CCCC(n2ncc(Cl)c2C(=O)Nc2ncc(C#Cc3ccccc3)cc2F)CC1 (centres unmarked) [Compound 225, tert-butyl 4-(4-chloro-5-((3-fluoro-5-(phenylethynyl)pyridin-2-yl)carbamoyl)-1H-pyrazol-1-yl)azepane-1-carboxylate]
0.77	CC(C)(C)OC(=O)N1CCC2(CC1)CC(n1ncc(Cl)c1C(=O)Nc1ncc(C#Cc3ccccc3)cc1F)C2 [Compound 346, tert-butyl 2-(4-chloro-5-((3-fluoro-5-(phenylethynyl)pyridin-2-yl)carbamoyl)-1H-pyrazol-1-yl)-7-azaspiro[3.5]nonane-7-carboxylate]
1.71	CCN1CC(n2ncc(Cl)c2C(=O)Nc2ncc(C#Cc3ccccc3)cc2C)C1 [Compound 377, 4-chloro-1-(1-ethylazetidin-3-yl)-N-(3-methyl-5-(phenylethynyl)pyridin-2-yl)-1H-pyrazole-5-carboxamide]
0.43	Cc1cc(C#Cc2ccccc2)cnc1NC(=O)c1c(Cl)cnn1C[C@H]1CCCN(C(=O)C(C)C)C1 [Compound 263]
0.44	N#CC1CC(n2ncc(Cl)c2C(=O)Nc2ncc(C#Cc3ccccc3)cc2F)C1 (centres unmarked) [Compound 266, 4-chloro-1-(3-cyanocyclobutyl)-N-(3-fluoro-3-(phenylethynyl)pyridin-2-yl)-1H-pyrazole-5-carboxamide]

Same assay, conditions: TREK-1 Thallium (Tl+) flux assay; values without footnote *12 are Method 1

IC50 [µM]	SMILES
0.14	O=C(Nc1ncc(C#Cc2ccccc2)cc1F)c1c(Cl)cnn1CCC1CCN(C(=O)C2CC2)CC1 [Compound 56, 4-chloro-1-(2-(1-(cyclopropanecarbonyl)piperidin-4-yl)ethyl)-N-(3-fluoro-5-(phenylethynyl)pyridin-2-yl)-1H-pyrazole-5-carboxamide]
0.19	Cc1cc(C#Cc2cccc(F)c2)cnc1NC(=O)c1c(Cl)cnn1CC1CCN(C(=O)C2COCCO2)CC1 (centres unmarked) [Compound 104, 1-((1-(1,4-dioxane-2-carbonyl)piperidin-4-yl)methyl)-4-chloro-N-(5-((3-fluorophenyl)ethynyl)-3-methylpyridin-2-yl)-1H-pyrazole-5-carboxamide]
0.27	Cc1cc(C#Cc2ccccc2)cnc1NC(=O)c1c(Cl)cnn1C1CCN(C(=O)C(C)C)CC1 [Compound 169]
0.08	O=C(Nc1ncc(C#Cc2ccc(F)cc2)cc1F)c1c(Cl)cnn1[C@H]1CC[C@@H](NC(=O)C2COCCO2)CC1 (stereo partly drawn) [Compound 23, 1-(cis-4-(1,4-dioxane-2-carboxamido)cyclohexyl)-4-chloro-N-(3-fluoro-5-((4-fluorophenyl)ethynyl)pyridin-2-yl)-1H-pyrazole-5-carboxamide]
0.27	CC(=O)N1CC2(CC(n3ncc(Cl)c3C(=O)Nc3ncc(C#Cc4ccccc4)cc3C)C2)C1 [Compound 173, 1-(2-acetyl-2-azaspiro[3.3]heptan-6-yl)-4-chloro-N-(3-methyl-5-(phenylethynyl)pyridin-2-yl)-1H-pyrazole-5-carboxamide]
0.29	Cc1cc(C#Cc2ccccc2)cnc1NC(=O)c1c(Cl)cnn1[C@H]1CC[C@H](NC(=O)C(C)C)CC1 [Compound 191, 4-chloro-1-(trans-4-isobutyramidocyclohexyl)-N-(3-methyl-5-(phenylethynyl)pyridin-2-yl)-1H-pyrazole-5-carboxamide]
0.13	Cc1cc(C#Cc2cccs2)cnc1NC(=O)c1c(Cl)cnn1C1CC2(C1)CN(C(=O)C(C)C)C2 [Compound 46, 4-chloro-1-(2-isobutyryl-2-azaspiro[3.3]heptan-6-yl)-N-(3-methyl-5-(thiophen-2-ylethynyl)pyridin-2-yl)-1H-pyrazole-5-carboxamide]
0.16	CC(C1CCN(C(=O)OC(C)(C)C)CC1)n1ncc(Cl)c1C(=O)Nc1ncc(C#Cc2ccccc2)cc1F (centres unmarked) [Compound 78, tert-butyl 4-(1-(4-chloro-5-((3-fluoro-5-(phenylethynyl)pyridin-2-yl)carbamoyl)-1H-pyrazol-1-yl)ethyl)piperidine-1-carboxylate]
0.16	Cc1cc(C#Cc2cccs2)cnc1NC(=O)c1c(Cl)cnn1CC1CCN(C(=O)C(C)C)CC1 [Compound 76, 4-chloro-1-((1-isobutyrylpiperidin-4-yl)methyl)-N-(3-methyl-5-(thiophen-2-ylethynyl)pyridin-2-yl)-1H-pyrazole-5-carboxamide]
0.09	CC(=O)N1CCC(n2ncc(Cl)c2C(=O)Nc2ncc(C#Cc3cccc(F)c3)cc2F)CC1 [Compound 25, 1-(1-acetylpiperidin-4-yl)-4-chloro-N-(3-fluoro-5-((3-fluorophenyl)ethynyl)pyridin-2-yl)-1H-pyrazole-5-carboxamide]
0.15	CC(=O)N1CCC(n2ncc(Cl)c2C(=O)Nc2ncc(C#Cc3ccccc3)cc2C)CC1C (centres unmarked) [Compound 61, 1-(1-acetyl-2-methylpiperidin-4-yl)-4-chloro-N-(3-methyl-5-(phenylethynyl)pyridin-2-yl)-1H-pyrazole-5-carboxamide]
0.22	CC(=O)N1CCC(CCn2ncc(Cl)c2C(=O)Nc2ncc(C#Cc3cccc(F)c3)cc2C)CC1 [Compound 133, 1-(2-(1-acetylpiperidin-4-yl)ethyl)-4-chloro-N-(5-((3-fluorophenyl)ethynyl)-3-methylpyridin-2-yl)-1H-pyrazole-5-carboxamide]
0.13	CC(=O)N1CCC(Cn2ncc(Cl)c2C(=O)Nc2ncc(C#Cc3ccccc3)cc2F)C1 (centres unmarked) [Compound 44, 1-((1-acetylpyrrolidin-3-yl)methyl)-4-chloro-N-(3-fluoro-5-(phenylethynyl)pyridin-2-yl)-1H-pyrazole-5-carboxamide]

Same assay, conditions: read-out: Tl^+ Assay % inhibition at 30 uM (Minus value indicates activation of TREK-1); at 30 uM; CHO-K1 cells stably expressing human TREK-1; minus = activation

inhibition at 30 µM [%]	SMILES
-106	O=C(Nc1ncc(C#Cc2cccs2)cc1F)c1nn(CCC2CCN(C(=O)C3COCCO3)CC2)cc1Cl (centres unmarked) [Compound 448, 1-(2-(1-(1,4-dioxane-2-carbonyl)piperidin-4-yl)ethyl)-4-chloro-N-(3-fluoro-5-(thiophen-2-ylethynyl)pyridin-2-yl)-1H-pyrazole-3-carboxamide]
